Activity calls are given as the source filed them. No cut-off for these calls is given here.
Columns and labels:
HepG2 = assay: Antiproliferative activity against human HepG2 cells assessed as inhibition of cell growth incubated for 70 hrs by CCK-8 assay; type: functional, cell-based; settings: HepG2, 70 h
HL-60 [1] = assay: Antiproliferative activity against human HL-60 cells assessed as inhibition of cell growth incubated for 70 hrs by CCK-8 assay; type: functional, cell-based; settings: HL-60, 70 h
[2] = target: Serine/threonine-protein kinase mTOR (Homo sapiens, UniProt P42345); assay: Inhibition of mTOR (unknown origin) using Ulight-4E-BP1 peptide as substrate incubated for 45 mins in presence of ATP by Lance Ultra assay
HL-60 [3] = assay: Induction of NO release in human HL-60 cells at 100 uM incubated for 12 hrs by griess reagent based colorimetric assay; type: functional, cell-based
MCF7 = assay: Antiproliferative activity against human MCF7 cells assessed as inhibition of cell growth incubated for 70 hrs by CCK-8 assay; type: functional, cell-based; settings: MCF7, 70 h
[4] = Cytotoxicity against HUVEC assessed as inhibition of cell growth incubated for 70 hrs by CCK-8 assay; type: toxicity, cell-based; settings: human, HUVEC cells
mTORC1 (Homo sapiens) = assay: Inhibition of mTORC1 in human HL-60 cells assessed as reduction in S6 phosphorylation at Ser235/236 residue incubated for 24 hrs by Western blot assay; settings: dose 20-160 nM
mTORC2 (Homo sapiens) = assay: Inhibition of mTORC2 in human HL-60 cells assessed as reduction in Akt phosphorylation at S473 residue incubated for 24 hrs by Western blot assay; settings: dose 20-160 nM

SMILES	IC50 (HepG2) [nM]	IC50 (HL-60 [1]) [nM]	IC50 [2] [nM]	Activity (HL-60 [3])	IC50 (MCF7) [nM]	IC50 at 70 h [4] [nM]	inhibition (mTORC1 (Homo sapiens))	inhibition (mTORC2 (Homo sapiens))
Nc1nc2cc(-c3nn(CCCC(=O)OCCCCCOc4no[n+]([O-])c4S(=O)(=O)c4ccccc4)c4ncnc(N)c34)ccc2o1	1430	160	9.52	Active	2720	> 10000	–	–
Nc1nc2cc(-c3nn(CCCC(=O)OCCO[N+](=O)[O-])c4ncnc(N)c34)ccc2o1	> 10000	> 10000	9.5	–	> 10000	> 10000	–	–
Nc1nc2cc(-c3nn(CCCC(=O)OCCCCOc4no[n+]([O-])c4S(=O)(=O)c4ccccc4)c4ncnc(N)c34)ccc2o1	1480	70	6.71	Active	610	> 10000	–	–
Nc1nc2cc(-c3nn(CCCC(=O)OCCOCCOc4no[n+]([O-])c4S(=O)(=O)c4ccccc4)c4ncnc(N)c34)ccc2o1	1430	520	7.02	Active	1390	> 10000	–	–
Nc1nc2cc(-c3nn(CCCC(=O)OCCCCO[N+](=O)[O-])c4ncnc(N)c34)ccc2o1	–	–	12.9	–	–	–	–	–
Nc1nc2cc(-c3nn(CCCC(=O)OCCCCCO[N+](=O)[O-])c4ncnc(N)c34)ccc2o1	–	–	12.5	–	–	–	–	–
Nc1nc2cc(-c3nn(CCCC(=O)NCCCOc4no[n+]([O-])c4S(=O)(=O)c4ccccc4)c4ncnc(N)c34)ccc2o1	9960	3500	4.2	Active	5180	> 10000	–	–
Nc1nc2cc(-c3nn(CCCC(=O)OCCOc4no[n+]([O-])c4S(=O)(=O)c4ccccc4)c4ncnc(N)c34)ccc2o1	1050	80	3.31	Active	2700	8940	–	–
CC(COc1no[n+]([O-])c1S(=O)(=O)c1ccccc1)NC(=O)CCCn1nc(-c2ccc3oc(N)nc3c2)c2c(N)ncnc21 (stereo unspecified)	> 10000	6410	5.96	Active	> 10000	9590	–	–
Nc1nc2cc(-c3nn(CCCC(=O)OCCCOc4no[n+]([O-])c4S(=O)(=O)c4ccccc4)c4ncnc(N)c34)ccc2o1	1320	90	6.39	Active	2410	9370	–	–
Nc1nc2cc(-c3nn(CCCC(=O)OCc4cccc(OCc5c(-c6ccccc6)no[n+]5[O-])c4)c4ncnc(N)c34)ccc2o1	–	–	337	–	–	–	–	–
Nc1nc2cc(-c3nn(CCCC(=O)OCc4ccc(OCc5c(-c6ccccc6)no[n+]5[O-])cc4)c4ncnc(N)c34)ccc2o1	–	–	> 1000	–	–	–	–	–
Nc1nc2cc(-c3nn(CCCC(=O)OCCc4ccc(OCc5c(-c6ccccc6)no[n+]5[O-])cc4)c4ncnc(N)c34)ccc2o1	–	–	> 1000	–	–	–	–	–
Nc1nc2cc(-c3nn(CCCC(=O)NCCOc4no[n+]([O-])c4S(=O)(=O)c4ccccc4)c4ncnc(N)c34)ccc2o1	> 10000	2050	7.9	Active	6110	> 10000	–	–
CC(C)n1nc(-c2ccc3oc(N)nc3c2)c2c(N)ncnc21 [SAPANISERTIB]	1730	160	–	inactive	1230	> 10000	–	–
Nc1nc2cc(-c3nn(CCCC(=O)OCCCCCCOc4no[n+]([O-])c4S(=O)(=O)c4ccccc4)c4ncnc(N)c34)ccc2o1	–	–	11	–	–	–	–	–
Nc1nc2cc(-c3nn(CCCC(=O)OCc4c(-c5ccccc5)no[n+]4[O-])c4ncnc(N)c34)ccc2o1	> 10000	7700	13.3	Active	> 10000	> 10000	–	–
Nc1nc2cc(-c3nn(CCCC(=O)OCCCCCCO[N+](=O)[O-])c4ncnc(N)c34)ccc2o1	–	–	19.8	–	–	–	–	–
Nc1nc2cc(-c3nn(CCCC(=O)OCC#CCOc4no[n+]([O-])c4S(=O)(=O)c4ccccc4)c4ncnc(N)c34)ccc2o1	240	20	3.65	Active	880	> 10000	Dose-Dependent Effect	Dose-Dependent Effect
Nc1nc2cc(-c3nn(CCCC(=O)OCCCO[N+](=O)[O-])c4ncnc(N)c34)ccc2o1	> 10000	7470	9.82	Active	> 10000	> 10000	–	–
Nc1nc2cc(-c3nn(CCCC(=O)OCc4ccccc4OCc4c(-c5ccccc5)no[n+]4[O-])c4ncnc(N)c34)ccc2o1	–	–	45.1	–	–	–	–	–
